Test results taken from ChEMBL document CHEMBL1141658, “4-thiazolidinone--a biologically active scaffold” (Eur J Med Chem, 2008).
Converted amounts (≈) assume the structure as drawn. Blank lines part the entries; values can stand above or below the molecule they belong to.

What was measured:
[1] = test system: Alternaria alternata; test: Inhibition of Alternaria tenuis spore germination; format: functional
[2] = test system: Mus musculus; test: Potentiation of pentobarbital-induced hypnosis in mouse assessed as sleeping time at 100 mg/kg relative to control; format: functional
[3] = target: T1, Follicle-stimulating hormone receptor (Homo sapiens, UniProt P23945); test: Agonist activity at human recombinant FSH receptor; format: functional
T1 sequence (P23945 whole entry): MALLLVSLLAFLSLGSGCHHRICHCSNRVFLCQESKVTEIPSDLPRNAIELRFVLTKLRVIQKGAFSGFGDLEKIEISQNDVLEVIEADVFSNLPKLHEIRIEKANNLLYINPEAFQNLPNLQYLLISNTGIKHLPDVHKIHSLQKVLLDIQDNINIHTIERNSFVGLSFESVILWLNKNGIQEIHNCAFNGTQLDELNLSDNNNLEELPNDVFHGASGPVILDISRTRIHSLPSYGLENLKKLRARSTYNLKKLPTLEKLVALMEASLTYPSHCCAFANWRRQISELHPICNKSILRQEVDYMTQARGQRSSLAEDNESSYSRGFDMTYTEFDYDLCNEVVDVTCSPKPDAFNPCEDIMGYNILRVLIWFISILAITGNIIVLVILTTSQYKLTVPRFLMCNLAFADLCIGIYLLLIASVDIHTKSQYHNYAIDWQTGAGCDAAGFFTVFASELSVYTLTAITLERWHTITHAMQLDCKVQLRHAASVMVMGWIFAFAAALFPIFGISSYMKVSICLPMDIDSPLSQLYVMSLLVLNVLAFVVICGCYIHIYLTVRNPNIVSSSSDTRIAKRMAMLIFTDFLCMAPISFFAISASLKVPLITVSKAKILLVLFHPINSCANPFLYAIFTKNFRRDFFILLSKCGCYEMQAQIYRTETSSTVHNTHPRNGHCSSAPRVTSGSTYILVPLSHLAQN

[4] = test system: Rattus norvegicus; test: Antiinflammatory activity against carrageenan-induced edema in po dosed Albino rat; format: functional
[5] = test system: Cryptococcus neoformans; test: Antifungal activity against Cryptococcus neoformans by serial double dilution method; format: functional
[6] = test system: Candida albicans; test: Antifungal activity against Candida albicans by serial double dilution method; format: functional
[7] = target: T2, Prostaglandin G/H synthase 2 (Mus musculus) (UniProt Q05769); test: Inhibition of COX2 in mouse J774 cells at 1 uM; format: cell-based
T2 sequence (whole entry): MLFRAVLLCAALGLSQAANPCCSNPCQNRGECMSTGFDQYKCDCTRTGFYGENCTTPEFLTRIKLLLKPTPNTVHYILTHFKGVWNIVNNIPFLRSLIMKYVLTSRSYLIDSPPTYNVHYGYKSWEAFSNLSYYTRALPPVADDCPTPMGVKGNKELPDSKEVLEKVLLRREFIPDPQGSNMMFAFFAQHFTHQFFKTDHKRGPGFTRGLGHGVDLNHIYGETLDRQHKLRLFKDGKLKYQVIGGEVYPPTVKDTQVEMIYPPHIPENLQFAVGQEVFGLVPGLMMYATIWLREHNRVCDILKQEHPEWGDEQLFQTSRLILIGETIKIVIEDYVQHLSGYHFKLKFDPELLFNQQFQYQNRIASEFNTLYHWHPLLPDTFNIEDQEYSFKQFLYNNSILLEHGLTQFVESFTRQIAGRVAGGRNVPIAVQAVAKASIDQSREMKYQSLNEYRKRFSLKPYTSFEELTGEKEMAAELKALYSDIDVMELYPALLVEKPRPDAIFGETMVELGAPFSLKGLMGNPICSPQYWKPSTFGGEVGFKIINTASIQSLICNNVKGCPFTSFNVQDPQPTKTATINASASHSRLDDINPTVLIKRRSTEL

[8] = target: T2, Prostaglandin G/H synthase 2 (Mus musculus); test: Inhibition of COX2 in mouse J774 cells at 10 uM; format: cell-based
[9] = Selectivity index, ratio of inhibition of human MT4 cells to EC50 for HIV1 3B; format: toxicity, cell-based; details: read-out: Selectivity Index
[10] = test system: Human immunodeficiency virus 1; test: Antiviral activity against HIV1 3B in human MT4 cells; format: functional, organism-based; details: Human immunodeficiency virus 1, 3B

Compound: O=C1CS/C(=N\c2ccccc2)N1c1ncccn1
inhibition (INH) [1]: 100%
Time [2]: 98.6 min

EC50 [3]: 5000 nM
Compound: COc1ccc(C2SC(CC(=O)NCCC3=CCc4ccccc43)C(=O)N2c2ccc(C(N)=O)c(Cl)c2)cc1 (stereo not given)

Compound: CCCCC1C(=O)N(c2ccccc2)N(c2ccccc2)C1=O [PHENYLBUTAZONE]
ED50 [4]: 94.4 mg/kg

Compound: CC1SC(c2ccccc2F)N(c2ccc(Br)cc2C(=O)O)C1=O (stereo not given)
ED50 [4]: 100 mg/kg

Compound: CCN1C(=O)C(C)S/C1=N\c1nc2c(Cl)cccc2s1 (stereo not given)
inhibition (INH) [1]: 100%

MIC [5]: 50 µg/mL (≈ 103 µM)
MIC [6]: 50 µg/mL (≈ 103 µM)
Compound: CCCCCCCCCCCCN1C(=O)CSC12CCC(C(=O)C(N)Cc1ccccc1)CC2 (stereo not given)

inhibition [7]: 35%
inhibition [8]: 55%
Compound: CCCN1C(=O)/C(=C2\C=CC(OC)=CC2)S/C1=N\c1ccccc1

Compound: O=C1CS/C(=N\c2ccccc2)N1CCCN1CCOCC1
inhibition (INH) [1]: 100%
Time [2]: 98.6 min

Compound: Cc1cccc(N2C(=O)CSC2c2c(Cl)cccc2Cl)n1 (stereo not given)
selectivity ratio [9]: 6470

Compound: CCN1C(=O)C(C)S/C1=N\c1nc2cc(Cl)ccc2s1 (stereo not given)
inhibition (INH) [1]: 100%

EC50 [10]: 204 nM
Compound: O=C1CSC(c2c(Cl)cccc2Cl)N1Cc1ccco1 (stereo not given)
